According to publication PMC8556375, “Binding interaction of a ring-hydroxylating dioxygenase with fluoranthene in Pseudomonas aeruginosa DN1” (Scientific Reports, 2021):

Molecular target: T1, RHD alpha subunit (RhdA, RS30940) (Pseudomonas aeruginosa, UniProt Q9HTF4)
T1 construct: gene gbcA; alpha subunit alone, 428 residues, His-tagged, pET-28a (NdeI/EcoRI), E. coli BL21 Star (DE3); no tag removal told
T1 sequence (Q9HTF4 1-429): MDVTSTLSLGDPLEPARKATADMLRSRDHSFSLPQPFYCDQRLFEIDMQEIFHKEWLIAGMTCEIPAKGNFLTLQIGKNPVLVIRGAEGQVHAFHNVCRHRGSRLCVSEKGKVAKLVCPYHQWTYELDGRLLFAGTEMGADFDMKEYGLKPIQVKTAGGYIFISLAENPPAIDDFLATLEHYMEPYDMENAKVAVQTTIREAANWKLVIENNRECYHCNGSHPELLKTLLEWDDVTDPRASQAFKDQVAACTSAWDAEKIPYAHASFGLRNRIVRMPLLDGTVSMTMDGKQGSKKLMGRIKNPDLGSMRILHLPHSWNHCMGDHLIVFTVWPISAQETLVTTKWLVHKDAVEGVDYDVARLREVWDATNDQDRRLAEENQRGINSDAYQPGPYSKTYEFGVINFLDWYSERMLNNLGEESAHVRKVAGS
Assay: intrinsic tryptophan fluorescence quenching (Stern-Volmer)
Type: binding
Conditions: phosphate buffer pH 7.5; 5.0 x 10^-6 mol/L protein; 298, 304 and 310 K; excitation 278 nm

Structure (SMILES): c1ccc2c(c1)-c1cccc3cccc-2c13 [fluoranthene]
- Stern-Volmer parameters: intrinsic fluorescence of RHD alpha subunit could be quenched by fluoranthene
